What is called Ki is the equilibrium dissociation constant of an inhibitor or competing ligand from its target.

The values below come from patent US8063209B2, “Phosphonyl ester conjugates as prodrugs” (priority 2004, dated 2011).

The conditions of data set [1]: cell and tissue homogenates.
Data set [2] is described as follows: Single pass intestinal perfusion with portal vein blood collection. The settings on record: for Pe-mes (mesenteric permeability): rat in situ single pass intestinal perfusion, portal vein plasma, pH 7.5 buffer. It is filed as in vivo, rat. The protocol: Male albino Sprague-Dawley rats, 9-10 weeks old and weighing 250-400 g were used in the study. Prior to each experiment, the rats were fasted for 18 h with free access to water. The rats were anesthetized with an i.m. injection of ketamine/xylazinelbutorphanol (87, 6, and 0.2 mg/kg body weight, respectively). The abdomen was opened by a midline incision of 4-5 cm. A suitable intestinal segment of approximately 10-20 cm was cannulated on two ends and connected to a syringe pump that guided the solution through a water bath of 37° C. This isolated segment was then rinsed with buffer at the respective pH at a flow-rate of 0.5 ml/min in order to clean out any residual debris. A 10 mM HEPES (pH 7.5) buffer containing 135 mM NaCl, 5 mM KCl and 0.01% PEG 4000 was used for the perfusion buffer. The intestinal segments were perfused at a flow rate of approximately […] with these buffers containing test drug and ^14C-PEG 4000 as a non-absorbable marker for measuring water flux. […] Sample analysis for ^14C (PEG-4000) was performed by scintillation counting. For these studies, we also took blood from the portal vein (prehepatic) as described below. After a segment of intestine was cannulated, the portal vein was then immediately cannulated using a 24-gauge Angeocath catheter (Becton Dickinson, Sandy, Utah). The cannula was secured in place using cyanoacrylate glue or surgical tape and connected to an approximately 35 cm long Silastic tubing, which allowed blood to flow into vials placed about 25 cm below the mesenteric vein. The single-pass intestinal perfusion was initiated at this time. Blood flowing out of the mesenteric vein from the isolated intestinal segment was collected directly into vials, centrifuged immediately and plasma was separated and stored at −80° C.
Rat plasma samples were acidified and processed with solid phase extraction. Briefly, a cation exchange solid-phase cartridge (MCX, 30 mg/i. cc, Waters) was activated with 1.0 ml of methanol and equilibrated with 1.0 ml of water. A 500 μl aliquot of rat plasma was acidified and loaded onto the cartridge. After washing with 1.0 ml of 0.1 N HCl and 1.0 ml methanol, the compounds were eluted with 1 ml of 5% NH4OH in methanol. The solvent was evaporated under vacuum and the residue was reconstituted in 200 μl of water. Samples were analyzed using a LC-MS/MS system (Micromass Quattro II, HP 1100). Ten μl of sample was separated with a Cs column (2.1×150 mm) using a mobile phase of 5-10% acetonitrile:water containing 0.5% formic acid.
From the plasma concentration of compound, the mesenteric permeability was determined by substitution into Eq. (1), Flux=(A)(Pe-mes)(Ci) Eq. (1) where Flux is equal to the portal blood flow (estimated at 1 ml/min in the rat) X the steady state mesenteric blood concentration of cidofovir-based compound, A is the absorptive area of the intestine (estimated at 12.56 cm^2 in the rat intestine), Pe-mes is the mesenteric permeability (cm/s), and Ci is the starting concentration of the drug in the perfusate ([…]).

For data set [3] the following is noted: pH 3-5.
The next data set deals with T1, hPepT1 (Homo sapiens, UniProt P46059).
T1 construct: expressed in transfected cells; host or cells: DC5 cells (hPepT1 over-expressing cell line)
T1 sequence (P46059 1-708): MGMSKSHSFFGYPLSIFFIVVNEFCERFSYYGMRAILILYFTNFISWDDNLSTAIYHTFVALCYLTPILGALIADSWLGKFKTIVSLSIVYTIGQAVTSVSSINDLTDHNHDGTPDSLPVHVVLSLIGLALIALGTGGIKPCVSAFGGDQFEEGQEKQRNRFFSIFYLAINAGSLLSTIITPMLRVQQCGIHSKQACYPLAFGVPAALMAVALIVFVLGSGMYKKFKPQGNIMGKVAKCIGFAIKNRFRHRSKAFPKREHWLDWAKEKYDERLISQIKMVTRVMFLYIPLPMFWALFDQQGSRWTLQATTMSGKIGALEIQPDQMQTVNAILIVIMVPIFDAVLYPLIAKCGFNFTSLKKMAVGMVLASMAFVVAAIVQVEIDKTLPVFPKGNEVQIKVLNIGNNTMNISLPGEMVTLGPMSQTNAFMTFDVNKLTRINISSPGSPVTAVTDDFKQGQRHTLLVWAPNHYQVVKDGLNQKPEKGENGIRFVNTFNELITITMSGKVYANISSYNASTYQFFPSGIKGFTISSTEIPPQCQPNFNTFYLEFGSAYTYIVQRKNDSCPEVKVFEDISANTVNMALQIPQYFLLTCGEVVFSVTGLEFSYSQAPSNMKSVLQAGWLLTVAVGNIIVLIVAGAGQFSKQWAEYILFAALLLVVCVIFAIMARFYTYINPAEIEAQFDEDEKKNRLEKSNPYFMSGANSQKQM
Put plainly: Competitive binding (3H Gly-Sar uptake inhibition) in hPepT1 over-expressing DC5 cells. The data set is classed as cell-based. As to conditions: for affinity for PepT1: DC5 cells over-expressing hPepT1. The protocol:
Ki values for the cidofovir compounds were determined in the hPepT1 over-expressing cell line (DC5) using ^3H glycine-sarcosine (Gly-Sar). DC5 cells were plated (12,000 cells/well) in 96-well tissue culture plates (Falcon) and allowed to grow for 4 days. The cells were washed once with 200 μl of uptake buffer and aspirated. The plates were cooled to 4° C. and 25 μl of uptake buffer containing 50 μM Gly-Sar (0.5 μCi/ml) was added. The uptake buffer also contained the test cidofovir-based compounds over a range of concentrations. Uptake was initiated by placing the plate in a shaker water bath (37° C.) and terminated at 10 min by rapid washing with multiple changes of 4° C. PBS (Sigma). The radioactive peptide was extracted from the cell layer with 200 μl of methanol:water (1:1) and counted in 4 ml of CytoScint ESTM scintillation cocktail (ICN). Non-linear regression analysis of the data was used to determine the IC50 using the solver function in Microsoft Excel.

The conditions of data set [4]: in vivo; cited from earlier work.
[5] abbreviates: DC5 cells, 50 μM 3H Gly-Sar, 10 min, 37° C., read-out: Gly-Sar inhibition, Ki.

Where two headings read alike, the source gives them in different places.

Consider `COC(=O)[C@H](COP1(=O)CO[C@@H](Cn2ccc(N)nc2=O)CO1)NC(=O)[C@@H](N)C(C)C` (mixture of isomers) [Compound 4, cHPMPC-Val-Ser(OMe)], for which, in data set [1], the “release of active drug” value is “rapidly released the active drug”. Besides, the “transport on co-dosing with bestatin” value in data set [2] (co-dosing with the aminopeptidase inhibitor bestatin) is “enhanced transport”. Besides, the “transport on co-perfusion with Gly-Sar” value in data set [2] (in situ perfusion model, co-perfusion with Gly-Sar) was “almost completely suppressed”. Besides, the “Pe-mes (mesenteric permeability)” value in data set [2] is 1.18 cm/s × 10^5. Besides, in data set [2] (rat model), the “transport vs. the parent drug” value is listed as “enhanced transport”. In addition, in data set [3], the stability in buffer result is listed as “stable”. Besides, on hPepT1, affinity was put at a Ki of 2.7 ± 0.1 mM and the “affinity for PepT1” value is given as “significant affinity”.
On to `COC(=O)[C@H](COP1(=O)CO[C@@H](Cn2ccc(N)nc2=O)CO1)NC(=O)[C@@H](N)CC(C)C` (mixture of isomers) [Compound 7, cHPMPC-Leu-Ser(OMe)], for which the “Pe-mes (mesenteric permeability)” value in data set [2] was 0.48 cm/s × 10^5. In addition, on hPepT1, the “affinity for PepT1” value is listed as “significant affinity”. Moreover, at hPepT1 (setting [5]), the inhibitory constant (Ki) worked out at 5.4 ± 0.2 mM.
For `Nc1ccn(C[C@@H](CO)OCP(=O)(O)O)c(=O)n1` [Cidofovir, (S)-1-(3-hydroxy-2-phosphonylmethoxypropyl)cytosine, reference compound], the “Pe-mes (mesenteric permeability)” value in data set [2] is recorded as 0.052 cm/s × 10^5. For the same compound, the Ki at hPepT1 (setting [5]) was 10.8 ± 0.3 mM.
Turning to `COC(=O)C(COP1(=O)COC(Cn2ccc(N)nc2=O)CO1)NC(=O)C(C)N` (stereo not shown) [Compound 6, cHPMPC-Ala-Ser(OMe)], the “Pe-mes (mesenteric permeability)” value in data set [2] was determined as 0.98 cm/s × 10^5. On hPepT1, the inhibition constant Ki stood at 3.4 ± 0.2 mM and the “affinity for PepT1” value is given as “significant affinity”.
On to `Nc1ccn(C[C@H]2COP(=O)(O)CO2)c(=O)n1` [Cyclic cidofovir, reference compound], for which, in data set [2], the “Pe-mes (mesenteric permeability)” value was 0.003 cm/s × 10^5. Moreover, the Ki at hPepT1 (setting [5]) is 10.7 ± 0.2 mM.
Consider `CC(C)[C@H](N)C(=O)OCCOCn1cnc2c(=O)[nH]c(N)nc21` [Valacyclovir], for which, in data set [4], the “bioavailability enhancement compared to parent drug acyclovir” value is recorded as 3- to 5 fold.
